Measured values reported in patent US20160002297A1, “THERAPEUTIC AGENTS” (NATIONAL UNIVERSITY OF SINGAPORE, priority 2013, published 2016).
Positions of bridges follow the written chain, without caps; N, C: chain ends. Residues, ends and D or L forms follow the SMILES beside them.

Experiments:
4T1 breast carcinoma = assay: Subcutaneous 4T1 breast carcinoma growth in mice, intravenous treatment; format: in vivo, mouse
Protocol: FIG. 13 cRKD peptide inhibits subcutaneous 4T1 breast carcinoma growth in mice when delivered intravenously. (a) 4T1 tumor growth curve in mice. X-axis represents the days after inoculation of 1 million tumor cells. Groups consisted of mice receiving 250 μg cRAA peptide or cRKD peptide through tail vein injection every other day from day 0 (date of inoculation) to 22. N=10. (b) Tumor weight at the end of the experiment (day 22). (c) Dissected tumors at the end of experiment. […] Paraffin sections of 4T1 tumors were probed for microvascular density (MVD), tumor cell proliferation and apoptosis through IF using anti-CD31, anti-PCNA and TUNEL staining respectively. (f) Quantification of MVD, cell proliferation and apoptosis. Plots represent the mean of 3 fields per section, 3 sections per tumor and 2 tumors per group. **P<0.01. Error bars denote SEM. […] Double immunofluorescence staining using anti-CD31 (red) and TUNEL (green) is shown. Nuclei were counter stained by DAPI (blue). Representative photos are shown. Apoptotic EC is indicated by white arrow.

B16 melanoma = assay: Pre-established subcutaneous B16 melanoma growth in mice, intravenous treatment; format: in vivo, mouse
Protocol: X-axis represents the days after inoculation of 5×10^5 tumor cells. Groups consisted of mice receiving cRAA and cRKD given in six doses of 250 μg through tail vein injection on days 8, 9, 10, 11, 12 and 13 (5 mice in each group, each mice with one tumor). (b) Tumor weight at the end of the experiment (day 14). (c) Dissected tumors at the end of experiment. […] Paraffin sections of B16 tumors were probed for microvascular density (MVD), tumor cell proliferation and apoptosis through immunofluoresence staining using anti-CD31, anti-PCNA and TUNEL staining respectively. (f) Quantification of MVD, cell proliferation and apoptosis. Plots represent the mean of 3 fields per section, 3 sections per tumor and 2 tumors per group. **P<0.01. Error bars denote SEM.

endothelial cells (ECs) = assay: Apoptosis assay (Cell Death ELISA) in cultured ECs; format: cell-based; details: cultured ECs in the presence of VEGF, 24 h
Protocol: ECs (2×10^4 cells per well) in 96-well plate were starved in 2% FBS basal CSC medium for 3 h. Cells were then incubated with peptides of various concentrations and 15 ng/ml VEGF for 24 h. Apoptosis was detected by measuring cytosolic oligonucleosome-bound DNA using a Cell Death ELISA kit purchased from Roche (USA). Plots represented the mean of 3 wells of apoptotic cells in 96 well plate (±SEM).

GRP78 = GRP78 (Homo sapiens, UniProt P11021); assay: ELISA solid phase-binding assay for binding affinity to GRP78; details: purified recombinant GRP78
Protocol: ELISA solid phase-binding assay was used to determine the dissociation constant between ISM or cyclic peptide and GRP78 as previously described with minor modification (Nishiuchi, Takagi et al. 2006). 96-well plates were coated with 50 μl of 10 nM cyclic peptide at 4° C. overnight. Nonspecific binding sites were blocked with 1% BSA for 2 h at room temperature. Increasing concentrations of GRP78 were incubated with immobilized cyclic peptide. After washing, the amount of bound GRP78 was quantified by ELISA. The value for Kd was calculated by GraphPad Prism software.

[1] = anti-CD31, anti-PCNA and TUNEL staining

`N=C(N)NCCC[C@@H]1NC(=O)[C@@H](N)CSSC[C@@H](C(=O)O)NC(=O)[C@H](CC(=O)O)NC(=O)[C@H](CCCCN)NC1=O` [cRKD, Cyclic CRKDC peptide] (H-CRKDC-OH; disulfide 1-5; N-terminus and C-terminus assumed) was tested, and the 4T1 tumor growth (4T1 breast carcinoma; 250 μg tail vein every other day, day 0 to 22, vs cRAA) was “suppressed subcutaneous 4T1 breast cancer growth”, the “apoptosis of cancer cells and cancer ECs in 4T1 breast carcinoma” value (4T1 breast carcinoma; CD31/TUNEL double staining) was “induces apoptosis of both cancer cells and cancer ECs” and the “tumor angiogenesis, proliferation and apoptosis in 4T1 tumor” value (4T1 breast carcinoma; [1]) was “suppressed tumor angiogenesis, proliferation and induced apoptosis”. The “vascularization of 4T1 tumors” value (4T1 breast carcinoma; compared to control) was “reduced vascularization”, the “suppression of breast cancer growth” value (4T1 breast carcinoma; intravenous injection) was 75% and the “tumor angiogenesis, proliferation and apoptosis in pre-established B16 tumor” value (B16 melanoma; [1]) was “suppressed tumor angiogenesis, proliferation and induced apoptosis”. For the same molecule, the “vascularization of pre-established B16 tumors” value (B16 melanoma; compared to control) was “reduced vascularization”, the “pre-established B16 tumor growth” value (B16 melanoma; six doses of 250 μg tail vein on days 8-13) was “inhibits pre-established subcutaneous B16 melanoma growth” and the “induction of EC apoptosis (pro-apoptotic activity)” value (endothelial cells (ECs)) was “potently induced apoptosis”. The “induction of EC apoptosis (pro-apoptotic activity)” value (endothelial cells (ECs); listed as RKD) was “equally potent comparing to “RKLYD”” and the Kd (GRP78) was 9.6 nM.
